Experiment [1] addresses T1, Carbonic anhydrase (Candida albicans (strain SC5314 / ATCC MYA-2876) (Yeast), UniProt Q5AJ71).
T1 sequence (Q5AJ71 whole entry): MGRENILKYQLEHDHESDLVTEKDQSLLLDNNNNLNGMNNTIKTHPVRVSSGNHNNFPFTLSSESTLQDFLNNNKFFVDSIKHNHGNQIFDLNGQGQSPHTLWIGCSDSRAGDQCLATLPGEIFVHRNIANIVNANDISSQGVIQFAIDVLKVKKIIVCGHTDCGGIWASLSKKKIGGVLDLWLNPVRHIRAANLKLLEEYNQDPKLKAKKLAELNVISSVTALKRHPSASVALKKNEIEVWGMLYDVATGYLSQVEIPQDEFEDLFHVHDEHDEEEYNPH

The target of experiment [2] is Carbonic anhydrase 2 (Homo sapiens, UniProt P00918).
The target in experiment [3] is Carbonic anhydrase 1 (Homo sapiens, UniProt P00915).

Each structure is given as a SMILES string.

Sequence of Carbonic anhydrase 1 (P00915 whole entry): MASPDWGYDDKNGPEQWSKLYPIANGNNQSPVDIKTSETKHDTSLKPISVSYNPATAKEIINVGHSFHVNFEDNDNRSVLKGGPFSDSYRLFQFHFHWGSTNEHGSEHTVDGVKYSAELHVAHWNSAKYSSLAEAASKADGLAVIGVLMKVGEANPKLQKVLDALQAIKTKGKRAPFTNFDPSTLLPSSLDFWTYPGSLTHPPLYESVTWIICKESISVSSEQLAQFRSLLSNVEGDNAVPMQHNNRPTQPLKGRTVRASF

`OB(O)c1ccc2ccccc2c1`: in experiment [1], the Ki (in general, a dissociation constant, usually derived from enzyme kinetics or from competition with a known ligand) was determined as 9.3 µM.

For the molecule `OB(O)c1ccc(Br)cc1`, the results for the Ki in experiment [2], in experiment [3] and in experiment [1] were 7 µM, 11.7 µM and 15.9 µM, respectively.

Regarding `COc1ccc(B(O)O)cc1`, the Ki in experiment [2] was 7.9 µM; in experiment [3] it was 10.9 µM; in experiment [1], 15.6 µM.

In the case of `OB(O)/C=C/c1ccc(-c2ccccc2)cc1`, the inhibition constant (Ki) amounted to 373 µM in experiment [2] and 42.3 µM in experiment [1].

On to `OB(O)c1ccc(Oc2ccccc2)cc1`, for which the Ki in experiment [2] turned out to be 11.5 µM; in experiment [3], 6 µM; in experiment [1], 8.6 µM.

As for `OB(O)/C=C/Cc1ccccc1`, the inhibitory constant (Ki) in experiment [2] was determined as 18.1 µM; in experiment [3], 8.6 µM; in experiment [1], 633 µM.

Turning to `Cc1ccc(/C=C/B(O)O)cc1`, the Ki in experiment [2] was 617 µM; in experiment [1], 460 µM.

For `CCCCc1ccc(B(O)O)cc1`, the inhibition constant (Ki) in experiment [1] came out at 8 µM.

In the case of `OB(O)/C=C/c1ccc(-c2ccc(C(F)(F)F)cc2)cc1`, the Ki in experiment [1] is 5210 µM.

As for `OB(O)c1ccc(-c2ccccc2)cc1` [BIPHENYLBORONIC ACID], in experiment [1], the affinity corresponds to a Ki of 7.8 µM.

As to `OB(O)c1ccccc1` [PHENYLBORONIC ACID], the values for the Ki in experiment [2] and in experiment [3] were 1050 µM and 1560 µM, respectively.

As to `OB(O)/C=C/c1ccccc1` [STYRYLBORONIC ACID], the inhibition constant Ki in experiment [2] worked out at 534 µM; in experiment [1] it was 779 µM.

For the molecule `Cc1ccc(B(O)O)cc1` [TOLYL BORONIC ACID], the Ki in experiment [2] is 10.8 µM; in experiment [3], 278 µM; in experiment [1], 9 µM.
